This note sets out measurements from patent publication EP3409671B1, “ISOTHIAZOLE DERIVATIVES AS GPR120 AGONISTS FOR THE TREATMENT OF TYPE II DIABETES” (Janssen Pharmaceutica NV, priority 2014, dated 2015).

Assay [1] concerns the target T1, short form of the GPR120 receptor (Homo sapiens, UniProt Q5NUL3).
T1 construct: host or cells: PathHunter CHO-K1 GPR120S β-Arrestin Cell Line
T1 sequence (Q5NUL3 1-361): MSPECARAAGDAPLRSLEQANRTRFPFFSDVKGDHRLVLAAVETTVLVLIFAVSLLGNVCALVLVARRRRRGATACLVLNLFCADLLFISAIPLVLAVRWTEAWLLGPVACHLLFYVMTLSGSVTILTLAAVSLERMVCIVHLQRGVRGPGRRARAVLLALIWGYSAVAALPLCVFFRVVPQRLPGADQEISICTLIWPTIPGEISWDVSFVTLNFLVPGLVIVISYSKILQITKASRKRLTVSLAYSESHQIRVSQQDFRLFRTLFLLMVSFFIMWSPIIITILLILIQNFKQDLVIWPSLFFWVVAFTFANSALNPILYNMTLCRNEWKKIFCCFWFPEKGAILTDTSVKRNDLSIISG
As to the kind of experiment: Human GPR120 DiscoveRx PathHunter Beta-Arrestin assay, Procedure β-arrestin B. Type of assay: cell-based. Conditions: PathHunter CHO-K1 GPR120S β-Arrestin Cell Line, 5000 cells/well, read-out: hGPR120 β-arrestin B EC50. An excerpt:
The binding of an agonist (medium/long chain fatty acids or small molecule agonists) to the G-protein-coupled receptor GPR120 activates phospholipase C, leading to release of intracellular Ca^+2 through the generation of inositol 1,4,5-trisphosphate (InsP3 or IP3). GPR120 activation can also trigger intracellular signaling via recruitment of Beta-Arrestin. In the present method, agonist-induced activation of the human GPR120 receptor is monitored through the use of PathHunter CHO-K1 GPR120 Beta-Arrestin Cell Line engineered by DiscoveRx, as detailed below. The cell lines are designed to co-express both the ProLink/Enzyme Donor (PK)-tagged GPCR and the Enzyme […] (EA)-tagged Beta-Arrestin fusion proteins. Upon GPR120 receptor stimulation / activation, the EA-tagged Beta-Arrestin portion is translocated to the tagged receptor, where the two enzyme fragments are brought within close proximity.
Under these conditions, these fragments can interact and form an active Beta-gal enzyme complex through Enzyme Fragment Complementation (EFC). This active Beta-gal complex can enzymatically hydrolyse the substrate to produce a detectable light signal; therefore, activation as a function of agonist concentration can be expressed as an EC50 value to determine relative compound activities. This in vitro assay therefore serves to assess compound agonist activity of the GPR120.
In Procedure β-arrestin B the cells used were PathHunter CHO-K1 GPR120S β-Arrestin Cell Line, expressing the short form of the GPR120 receptor (Accession #NM_181745), with 5000 cells/well. […]
The plates were read on an EnVision instrument, using Protocol name: Luminescence, Plate type: 384 Costar, Measurement height: 3 mm, Measurement time: 1s, Aperture: 384 Plate aperture. The %activity relative to the positive control was calculated using the following equation: %Activity = (Countcompound −Countvehicle)/(Countpostivite control −Countvehicle) × 100% [formula] […]

The target in the next assay is T2, Human GPR120 short form (Homo sapiens, UniProt Q5NUL3).
T2 construct: expressed in transfected cells
T2 sequence (Q5NUL3 1-361): T1 sequence (Q5NUL3 1-361)
As to the kind of experiment: Human GPR120 Calcium Flux Assay, Procedure Calcium B. The following applies: HEK-293 cells expressing Human GPR120 short form, FLIPR, 4200 cells/well; read-out: GPR120 Ca^2+ Assay B EC50. Type of assay: cell-based. An excerpt: This in vitro assay serves to assess test compound agonist activity against the short splice variant (SVS with Accession number NM_001195755.1 confirmed by sequencing data) of the GPR120 receptor. The Human Short splice variant #2 (NM_001195755.1) is missing an in-frame coding exon compared to variant 1 (the Human Long splice variant NM_181745.3), resulting in a shorter isoform (GPR120-S) lacking a 16 aa protein segment compared to isoform GPR120-L. The assay platform utilizes HEK-293 cells stably transfected to express the Human GPR120 short form. These cells are first loaded with the Ca^+2 sensitive dye, Fluo-4 NW. Upon stimulation, intracellular released Ca^+2 can bind to the dye and alter its fluorescence intensity. This increase in fluorescence signal, and thus the flux in intracellular [Ca^2+], is detected and quantitated by fluorescence imaging using a FLIPR reader. The effect of the agonist is measured as a function of concentration and used to calculate an EC50 based upon a response curve.
In this procedure 4200 cells/well were employed.
A Human GPR120 clone (Genbank accession number NM _001195755.1) was placed into the pcDNA3.1 mammalian expression vector carrying the neomycin resistance gene. A stable mammalian cell was generated by placing the above clone into a HEK293 background. Clonal cells responding to long chain fatty acids had expression levels of GPR120 confirmed by RT-qPCR. Human HEK-GPR120 cells were cultured in Dulbecco's Modified Eagle's Medium (DMEM)/F12 medium supplemented with 10% fetal bovine serum (FBS), 1% L-Glutamine and 1% penicillin/streptomycin and 0.5 mg/ml G-418. Cells were split 2 times a week to keep the cells in the log-phase growth.
In preparation for the assay, HEK cells stably transfected with Human GPR120 (2.5K cells per well in 25uL growth medium) were seeded into 384-well plates and then incubated overnight (37°C, 5% CO2). The next day, the media was changed to 20 µL assay buffer and the cell starved for 1h at 37°C. […]
The assay was performed on a FLIPR plate reader using the following parameters. Baseline was read for 10 seconds at 1 sec intervals. The program was set to transfer 10µL of ligand from compound plate to cell plate after baseline reading. […] After compound addition, each well was read for 300 sec, with measurements collected at 1 sec intervals.
The kinetic data from the FLIPR was based upon a 5 minute window for data collection. The fluorescence of each sample well was used for individual calculations of a normalized RFU value, which was defined as maximum response minus the minimum response. The normalized fluorescence reading (RFU) was calculated as follows: RFU = Fmax−Fmin [formula] […]
(In general: Calcium assays in cells follow changes in intracellular calcium, usually with a dye or a luminescent sensor.)

A word on the EC50: it is the concentration that produces a half-maximal response. For the molecule `COc1cnc(-c2nsc(C(F)(F)F)c2COc2c(F)cc(CCC(=O)O)cc2F)s1` [Cpd 267, 3-(3,5-difluoro-4-((3-(5-methoxythiazol-2-yl)-5-(trifluoromethyl)isothiazol-4-yl)methoxy)phenyl)propanoic acid], the results for the EC50 (in assay [1]; at Human GPR120 short form) were 526 nM and 274 nM, respectively.
On to `COc1cnc(-c2nsc(C(F)(F)F)c2COc2ccc(CCC(=O)O)c(C)c2C)s1` [Cpd 268, 3-(4-((3-(5-methoxythiazol-2-yl)-5-(trifluoromethyl)isothiazol-4-yl)methoxy)-2,3-dimethylphenyl)propanoic acid], for which the 50% effective concentration (EC50) in assay [1] was found to be 445 nM; at Human GPR120 short form, 473 nM.
With `Cc1c(CCC(=O)O)ccc(OCc2c(-c3ncc(Cl)s3)nsc2C(F)(F)F)c1C` [Cpd 269, 3-(4-((3-(5-chlorothiazol-2-yl)-5-(trifluoromethyl)isothiazol-4-yl)methoxy)-2,3-dimethylphenyl)propanoic acid], the 50% effective concentration (EC50) in assay [1] worked out at 676 nM; at Human GPR120 short form it was 194 nM.
